Test results from US11696913B2, “Prolonged ectoparasite-controlling agent for animal” (MITSUI CHEMICALS AGRO, INC., priority 2017, dated 2023).
Where two headings read alike, the source gives them in different places.

Key:
Ctenocephalides felis [1] = assay: Ctenocephalides felis in-vitro feeding test with fleas (CTECFE oral); conditions: 48 hours, read-out: insecticidal feeding activity; for pest or weed control at 0.032 ppm: dose 0.032 ppm in citrated cattle blood; for pest or weed control at 0.16 ppm: dose 0.16 ppm in citrated cattle blood; for pest or weed control at 0.8 ppm: dose 0.8 ppm in citrated cattle blood; for pest or weed control at 4 ppm: dose 4 ppm in citrated cattle blood
Outline: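 Scored as percent fleas killed (0–100%) 48 hours after feeding began. Compound, dissolved in DMSO and diluted into citrated cattle blood, was offered via a parafilm membrane to roughly 20 adult male and female C. felis at about 37° C.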

Laodelphax striatellus = assay: Insecticidal testing against small brown planthopper; format: in vivo; conditions: 144 h, concentration 100 ppm, sprayed rice seedlings, after 6 days, read-out: pesticidal rate
Outline: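 Acetone solution of compound at a set concentration sprayed onto rice seedlings, air-dried, then exposed to 10 planthoppers (one group). Held at 25° C; survival rate recorded after 6 days.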

Spodoptera litura = assay: Insecticidal testing against common cutworm; format: in vivo; conditions: foliar, 144 h, concentration 100 ppm, cabbage leaf dip, second-stage larvae, after 6 days, read-out: pesticidal rate
Text: Insecticidal Testing Against Common Cutworm (Spodoptera litura)

Ctenocephalides felis [2] = assay: Systemic treatment in-vivo test with cat flea on rats; conditions: Ctenocephalides felis, ip, intraperitoneal injection, 10 mg/kg
Description: (§1) Systemic Treatment In-Vivo Test with American Dog Tick Nymph and Cat Flea on Rats
(§2) Type of study and overall study design: The method is a randomized non-blinded efficacy study in accordance with European animal welfare requirements. Rats (Rattus norvegicus) were randomized based on pre-treatment flea counts. The efficacy of treatment was determined by comparison of the flea and tick counts of different treatment groups versus the placebo-treated control group. The experimental unit was the individual study animal. Method and route of administration: The compound was applied in a suitable solvent and carrier (more specifically, added to glycerol formal; in case of poorly soluble compounds, a solvent mixture with up to 25% by volume of N-methyl pyrrolidone may be used.) considering the individual body weight as an intraperitoneal injection.
(§3) Experimental infestation: On the day of treatment and weekly thereafter, 30 ticks (D. variabilis nymphs) were released onto the back of each rat, and 30 fleas (C. felis) were released onto the back of each rat 24 h later.
(§4) Tick and Flea counting: Rats were thoroughly examined and ticks and fleas were manually removed 48 h (±4 h) after tick infestation and 24 h after flea infestation. Live fleas and live attached engorged ticks were counted. In non-evident cases, engorgement status was evaluated by squeezing the tick on a filter paper to find traces of blood as sign for engorgement.

[3] = tested on: Rhipicephalus (Boophilus) microplus; assay: In vitro injection test with Rhipicephalus (Boophilus) microplus (BOOPMI Inj); conditions: 168 h, laid fertile eggs after 7 days, read-out: acaricidal activity; for pest or weed control at 32 ng: dose 0.032 μg/animal injected; for pest or weed control at 0.00016 mg: dose 0.16 μg/animal injected; for pest or weed control at 0.0008 mg: dose 0.8 μg/animal injected
Outline: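 Five engorged adult females each get a 1 μl abdominal injection of compound dissolved and diluted in DMSO. Kept 7 days at 28° C./85% rel. hum.; percent activity rates egg laying and egg fertility (0% all fertile, 100% none laid or infertile).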

Ctenocephalides felis [4] = assay: In vitro contact test with fleas; conditions: read-out: insecticidal activity; for pest or weed control at 0.2 µg/cm2, 0.2 µg/cm2: dose 0.2 μg/cm^2, dead or moribund fleas after 48 h; for pest or weed control at 1 µg/cm2, 1 µg/cm2: dose 1 μg/cm^2, dead or moribund fleas after 48 h; for pest or weed control at 0.04 µg/cm2, 0.04 µg/cm2: dose 0.04 μg/cm^2, dead or moribund fleas after 48 h
Outline: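 Activity is the percentage of fleas dead or moribund at 48 h, judged by immobility or uncoordinated movement after tapping. Tubes were coated by evaporating acetone solutions (900 ppm gives 5 μg/cm^2), then held 5-10 adult fleas of both sexes at room temperature and ambient humidity.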

Plutella xylostella = assay: Insecticidal testing against diamondback moth; format: in vivo; conditions: foliar, 144 h, concentration 100 ppm, cabbage leaf dip, third-stage larvae, after 6 days, read-out: pesticidal rate
Text: Insecticidal Testing Against Diamondback Moth (Plutella xylostella)

Rhipicephalus sanguineus = assay: In vitro contact test with adult hard ticks (Rhipicephalus sanguineus); conditions: read-out: acaricidal activity; for pest or weed control at 0.2 µg/cm2, 0.2 µg/cm2: dose 0.2 μg/cm^2, 48 h; for pest or weed control at 1 µg/cm2, 1 µg/cm2: dose 1 μg/cm^2, 48 h
Outline: (§5)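 Acaricidal activity = % ticks dead or moribund after 48 h contact with acetone-deposited compound on vial walls (e.g., 900 ppm solution → 5 μg/cm^2). Ambient conditions for R. sanguineus, 21° C./85% rel. hum. for other species; heat challenge at 45-50° C. separated climbers from moribund ticks.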

Dermacentor variabilis [5] = assay: Systemic treatment in-vivo test with American dog tick nymph on rats; conditions: Dermacentor variabilis, ip, intraperitoneal injection, 2 mg/kg
Description: as §1, §2, §3, §4

Ixodes ricinus = assay: In vitro contact test with adult hard ticks (Ixodes ricinus); conditions: read-out: acaricidal activity; for pest or weed control at 1 µg/cm2, 1 µg/cm2: dose 1 μg/cm^2, 48 h; for pest or weed control at 5 µg/cm2, 5 µg/cm2: dose 5 μg/cm^2, 48 h
Outline: as §5

Dermacentor variabilis [6] = assay: In vitro contact test with adult hard ticks (Dermacentor variabilis); conditions: read-out: acaricidal activity; for pest or weed control at 0.2 µg/cm2, 0.2 µg/cm2: dose 0.2 μg/cm^2, 48 h; for pest or weed control at 1 µg/cm2, 1 µg/cm2: dose 1 μg/cm^2, 48 h
Outline: as §5

Amblyomma americanum = assay: In vitro contact test with hard ticks (Amblyomma americanum nymphs); conditions: read-out: acaricidal activity; for pest or weed control at 1 µg/cm2, 1 µg/cm2: dose 1 μg/cm^2, 48 h
Outline: as §5

[7] = SD 2, read-out: Geometric mean percent reduction in live flea (Ctenocephalides felis) counts compared to untreated control rats
[8] = SD 9, read-out: Geometric mean percent reduction in live flea (Ctenocephalides felis) counts compared to untreated control rats
[9] = SD 16, read-out: Geometric mean percent reduction in live flea (Ctenocephalides felis) counts compared to untreated control rats
[10] = SD 23, read-out: Geometric mean percent reduction in live flea (Ctenocephalides felis) counts compared to untreated control rats

Structure (SMILES)	pest or weed control at 0.032 ppm (Ctenocephalides felis [1])	pest or weed control at 0.16 ppm (Ctenocephalides felis [1])	pest or weed control at 0.8 ppm (Ctenocephalides felis [1])	pest or weed control at 4 ppm (Ctenocephalides felis [1])	pest or weed control at 100 ppm (Laodelphax striatellus)	pest or weed control at 100 ppm (Spodoptera litura)	inhibition in vivo at 10 mg/kg (Ctenocephalides felis [2]; [7])	inhibition in vivo at 10 mg/kg (Ctenocephalides felis [2]; [8])	inhibition in vivo at 10 mg/kg (Ctenocephalides felis [2]; [9])	pest or weed control at 32 ng [3]	pest or weed control at 0.00016 mg [3]	pest or weed control at 0.0008 mg [3]	pest or weed control at 0.2 µg/cm2, 0.2 µg/cm2 (Ctenocephalides felis [4])	pest or weed control at 1 µg/cm2, 1 µg/cm2 (Ctenocephalides felis [4])	pest or weed control at 100 ppm (Plutella xylostella)	pest or weed control at 0.2 µg/cm2, 0.2 µg/cm2 (Rhipicephalus sanguineus)	pest or weed control at 1 µg/cm2, 1 µg/cm2 (Rhipicephalus sanguineus)	pest or weed control at 5 µg/cm2, 5 µg/cm2 (Ixodes ricinus)	pest or weed control at 0.2 µg/cm2, 0.2 µg/cm2 (Dermacentor variabilis [6])	pest or weed control at 1 µg/cm2, 1 µg/cm2 (Dermacentor variabilis [6])	also measured
CN(C(=O)c1ccc(F)cc1)c1cccc(C(=O)Nc2c(I)cc(C(F)(C(F)(F)F)C(F)(F)F)cc2S(=O)(=O)C(F)(F)F)c1F [Compound 70, 2-fluoro-3-(4-fluoro-N-methylbenzamido)-N-(2-iodo-4-(perfluoropropan-2-yl)-6-((trifluoromethyl)sulfonyl)phenyl)benzamide]	95%	95%	95%	95%	≥ 70%	≥ 70%	99%	100%	99%	100%	100%	100%	95%	95%	≥ 70%	90%	90%	–	–	–	inhibition in vivo at 10 mg/kg (Ctenocephalides felis [2]; [10]): 49%; inhibition in vivo at 10 mg/kg (Ctenocephalides felis [2]; SD 30, read-out: Geometric mean percent reduction in live flea (Ctenocephalides felis) counts compared to untreated control rats): 7%
CN(C(=O)c1ccc(F)cc1)c1cccc(C(=O)Nc2c(I)cc(C(F)(C(F)(F)F)C(F)(F)F)cc2OC(F)F)c1F [Compound 90]	95%	95%	95%	95%	≥ 70%	≥ 70%	–	–	–	100%	100%	100%	95%	95%	≥ 70%	90%	90%	90%	90%	90%	inhibition in vivo at 2 mg/kg (Dermacentor variabilis [5]; SD 2, read-out: Geometric mean percent reduction in live tick (Dermacentor variabilis) counts compared to untreated control rats): 100%; inhibition in vivo at 2 mg/kg (Dermacentor variabilis [5]; SD 9, read-out: Geometric mean percent reduction in live tick (Dermacentor variabilis) counts compared to untreated control rats): 83%; inhibition in vivo at 2 mg/kg (Dermacentor variabilis [5]; SD 16, read-out: Geometric mean percent reduction in live tick (Dermacentor variabilis) counts compared to untreated control rats): 29%; pest or weed control at 1 µg/cm2, 1 µg/cm2 (Ixodes ricinus): 90%; pest or weed control at 6.4 ng ([3]; dose 0.0064 μg/animal injected): 100%; pest or weed control at 0.04 µg/cm2, 0.04 µg/cm2 (Ctenocephalides felis [4]): 95%
CN(C(=O)c1ccc(F)cc1)c1cccc(C(=O)Nc2c(Br)cc(C(F)(C(F)(F)F)C(F)(F)C(F)(F)F)cc2C(F)(F)F)c1F (stereo not shown) [Compound 93]	95%	95%	95%	95%	≥ 70%	≥ 70%	100%	97%	68%	100%	100%	100%	95%	95%	≥ 70%	–	–	90%	90%	90%	inhibition in vivo at 10 mg/kg (Ctenocephalides felis [2]; [10]): 14%; pest or weed control at 0.04 µg/cm2, 0.04 µg/cm2 (Ctenocephalides felis [4]): 95%; pest or weed control at 1 µg/cm2, 1 µg/cm2 (Amblyomma americanum): 90%
O=C(Nc1cccc(C(=O)Nc2c(I)cc(C(F)(C(F)(F)F)C(F)(F)F)cc2OC(F)F)c1F)c1ccc(F)c(F)c1 [Compound 110]	95%	95%	95%	95%	≥ 70%	≥ 70%	–	–	–	100%	100%	100%	95%	95%	≥ 70%	90%	90%	90%	90%	90%	pest or weed control at 0.2 µg/cm2, 0.2 µg/cm2 (Ixodes ricinus; dose 0.2 μg/cm^2, 48 h): 90%; pest or weed control at 1 µg/cm2, 1 µg/cm2 (Ixodes ricinus): 90%; pest or weed control at 0.04 µg/cm2, 0.04 µg/cm2 (Amblyomma americanum; dose 0.04 μg/cm^2, 48 h): 90%; pest or weed control at 0.2 µg/cm2, 0.2 µg/cm2 (Amblyomma americanum; dose 0.2 μg/cm^2, 48 h): 90%; pest or weed control at 1 µg/cm2, 1 µg/cm2 (Amblyomma americanum): 90%
